Where only a bound is given, the exact number is not on record here.

The first test deals with T1, Zcchc11 enzyme (Homo sapiens, UniProt Q5TAX3).
T1 construct: made in house; host or cells: HEK293 cells (Zcchc11); E. coli Rosetta II (LIN28A)
T1 sequence (Q5TAX3 212-1420): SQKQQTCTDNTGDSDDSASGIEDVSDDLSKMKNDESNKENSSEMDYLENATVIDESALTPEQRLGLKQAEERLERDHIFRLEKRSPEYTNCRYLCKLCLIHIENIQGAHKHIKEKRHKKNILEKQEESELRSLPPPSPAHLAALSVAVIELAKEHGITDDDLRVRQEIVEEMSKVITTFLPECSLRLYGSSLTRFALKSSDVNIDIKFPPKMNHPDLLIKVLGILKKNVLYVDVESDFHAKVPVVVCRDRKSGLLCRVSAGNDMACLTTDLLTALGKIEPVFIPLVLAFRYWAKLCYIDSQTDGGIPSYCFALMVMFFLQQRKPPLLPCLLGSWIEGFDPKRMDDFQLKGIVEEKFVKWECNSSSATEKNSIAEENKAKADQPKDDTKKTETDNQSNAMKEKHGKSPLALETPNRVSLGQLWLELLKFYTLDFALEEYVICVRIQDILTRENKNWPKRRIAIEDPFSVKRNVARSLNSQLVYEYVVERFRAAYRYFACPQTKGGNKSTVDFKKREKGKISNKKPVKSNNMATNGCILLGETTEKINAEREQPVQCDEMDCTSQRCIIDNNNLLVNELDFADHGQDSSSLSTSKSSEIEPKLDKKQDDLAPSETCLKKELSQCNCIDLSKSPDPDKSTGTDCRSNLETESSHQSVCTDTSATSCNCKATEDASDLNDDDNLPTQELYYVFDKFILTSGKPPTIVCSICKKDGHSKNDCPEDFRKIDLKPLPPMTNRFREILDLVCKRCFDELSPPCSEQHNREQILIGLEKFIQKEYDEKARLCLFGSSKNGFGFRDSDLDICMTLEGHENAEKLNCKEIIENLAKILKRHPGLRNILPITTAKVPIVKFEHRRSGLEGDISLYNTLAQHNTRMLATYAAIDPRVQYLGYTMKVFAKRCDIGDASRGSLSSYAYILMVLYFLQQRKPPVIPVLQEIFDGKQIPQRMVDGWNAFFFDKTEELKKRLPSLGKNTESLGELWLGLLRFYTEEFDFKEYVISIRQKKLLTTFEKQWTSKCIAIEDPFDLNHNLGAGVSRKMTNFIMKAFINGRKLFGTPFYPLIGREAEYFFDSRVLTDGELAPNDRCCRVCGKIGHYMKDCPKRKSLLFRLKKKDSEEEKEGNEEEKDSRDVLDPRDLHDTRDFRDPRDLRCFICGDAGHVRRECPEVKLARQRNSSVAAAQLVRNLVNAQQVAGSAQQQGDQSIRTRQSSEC
The test can be described thus: TUTase assay (Zcchc11 assay, Lin28a-dependent polyuridylation of pre-let-7). The following applies: LIN28A 10 nM, Zcchc11 0.2 nM, 5′-fluorescein pre-let-7 miRNA 2 nM, UTP 5 uM, room temperature, 30 minutes pre-incubation; read-out: Potency Lin28a-dep Z11 IC50. In kind it is biochemical. An outline of the steps:
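Human Zcchc11 residues 212-1420 (HEK293-expressed, MBP tag cleaved, C-terminal FLAG) at 0.2 nM, with 10 nM full-length human LIN28A and 2 nM 5′-fluorescein pre-let-7, preincubated with compound 30 min at room temperature. Reaction started with 5 uM UTP plus 4 nM 3′-rhodamine A20 quench probe; fluorescein loss read kinetically, IC50 from initial rates.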
By IC50 is commonly meant the midpoint of a concentration-inhibition curve. For the compound `CCc1cccnc1OC[C@H]1CCCN1c1cc2c(cc1F)c(=O)c(C(=O)O)cn2-c1ccccc1` [Example 6, (R)-7-(2-(((3-ethylpyridin-2-yl)oxy)methyl)pyrrolidin-1-yl)-6-fluoro-4-oxo-1-phenyl-1,4-dihydroquinoline-3-carboxylic acid], the half-maximal inhibitory concentration (IC50) is > 50000 nM.

The test is the same for the next values; noted with them: Lin28a-dependent Zcchc11 (Z11) TUTase activity; read-out: Potency Lin28a-dep Z11 IC50.
Consider `CN(C)C1CN(c2ccc(-n3cc(C(=O)O)c(=O)c4cc(F)c(N5CC(c6cccnc6)C[C@@H]5COc5ncccc5Cl)cc43)cn2)C1` (stereo partly drawn) [Compound 325, 7-[(2R)-2-[[(3-Chloropyridin-2-yl)oxy]methyl]-4-(pyridin-3-yl)pyrrolidin-1-yl]-1-[6-[3-(dimethyl-amino)azetidin-1-yl]pyridin-3-yl]-6-fluoro-4-oxoquinoline-3-carboxylic acid], for which the IC50 was ≤ 1000 nM. On the same count and under the same terms, to `COc1ccc(Cl)c(OCC23CC(CN2c2nc4c(cc2Cl)c(=O)c(C(=O)O)cn4-c2ccc(N4CC(N(C)C)C4)nc2)C3)n1` [Compound 279, 6-chloro-7-(1-(((3-chloro-6-methoxy-pyridin-2-yl)oxy)methyl)-2-azabicyclo [2.1.1]hexan-2-yl)-1-(6-(3-(dimethyl-amino)azetidin-1-yl)pyridin-3-yl)-4-oxo-1,4-dihydro-1,8-naphthyridine-3-carboxylic acid formic acid] belongs ≤ 1000 nM; to `COc1ccc(Cl)c(OC[C@H]2C[C@@H]3C[C@@H]3N2c2cc3c(cc2Cl)c(=O)c(C(=O)O)cn3-c2ccnc(N)c2)n1` (racemic) [Compound 231, Rac-1-(2-aminopyridin-4-yl)-6-chloro-7-((1R,3S,5R)-3-(((3-chloro-6-methoxy-pyridin-2-yl)oxy)methyl)-2-azabicyclo [3.1.0]hexan-2-yl)-4-oxo-1,4-dihydro-quinoline-3-carboxylic acid], ≤ 1000 nM; to `CN(C)C1CN(c2ccc(-n3cc(C(=O)O)c(=O)c4cc(Cl)c(N5CC(F)(F)C[C@@H]5COc5ncccc5Cl)cc43)cn2)C1` (racemic) [Compound 305, rac-(R)-6-chloro-7-(2-(((3-chloropyridin-2-yl)oxy)methyl)-4,4-difluoro-pyrrolidin-1-yl)-1-(6-(3-(dimethyl-amino)azetidin-1-yl)pyridin-3-yl)-4-oxo-1,4-dihydro-quinoline-3-carboxylic acid], ≤ 1000 nM.

In the case of `CN(C)C1CN(c2ccc(-n3cc(C(=O)O)c(=O)c4cc(Cl)c(N5CCC(C)(C)C5COc5nc(OC6CC6)ccc5Cl)cc43)cn2)C1` (centres unmarked) [Compound 272, 6-chloro-7-(2-(((3-chloro-6-cycloprop-oxypyridin-2-yl)oxy)methyl)-3,3-dimethyl-pyrrolidin-1-yl)-1-(6-(3-(dimethyl-amino)azetidin-1-yl)pyridin-3-yl)-4-oxo-1,4-dihydro-quinoline-3-carboxylic acid], the IC50 is ≤ 1000 nM. Consider `COc1ccc(Cl)c(OC[C@H]2C[C@@H](c3cccnc3)CN2c2cc3c(cc2Cl)c(=O)c(C(=O)O)cn3-c2ccc(N3CC(N(C)C)C3)nc2)n1` [Compound 345, 6-chloro-7-((2R,4S)-2-(((3-chloro-6-methoxy-pyridin-2-yl)oxy)methyl)-4-(pyridin-3-yl)pyrrolidin-1-yl)-1-(6-(3-(dimethyl-amino)azetidin-1-yl)pyridin-3-yl)-4-oxo-1,4-dihydro-quinoline-3-carboxylic acid], for which the IC50 was ≤ 1000 nM. For `O=C(O)c1cn(C2CC2)c2c(Cl)c(N3CCC[C@@H]3COc3ccccn3)c(F)cc2c1=O` [Compound 91, (R)-8-chloro-1-cyclopropyl-6-fluoro-4-oxo-7-(2-((pyridin-2-yloxy)methyl)pyrrolidin-1-yl)-1,4-dihydro-quinoline-3-carboxylic acid], the IC50 was 10000 to 50000 nM. As to `CN(C)C1CN(c2ccc(-n3cc(C(=O)O)c(=O)c4cc(Cl)c(N5CC(c6cccnn6)C[C@@H]5COc5ncccc5Cl)cc43)cn2)C1` (mixture of isomers) [Compound 307, rac-6-chloro-7-((2R)-2-(((3-chloropyridin-2-yl)oxy)methyl)-4-(pyridazin-3-yl)pyrrolidin-1-yl)-1-(6-(3-(dimethyl-amino)azetidin-1-yl)pyridin-3-yl)-4-oxo-1,4-dihydro-quinoline-3-carboxylic acid], the IC50 was ≤ 1000 nM. For `Nc1ccc(-n2cc(C(=O)O)c(=O)c3cc(Cl)c(N4CC(c5ccccn5)C[C@@H]4COc4ncccc4Cl)cc32)cn1` (mixture of isomers) [Compound 180, rac-1-(6-aminopyridin-3-yl)-6-chloro-7-((2R)-2-(((3-chloropyridin-2-yl)oxy)methyl)-4-(pyridin-2-yl)pyrrolidin-1-yl)-4-oxo-1,4-dihydro-quinoline-3-carboxylic acid], the IC50 was ≤ 1000 nM.

Staying with this test, now noted: Lin28a-dependent Zcchc11 (Z11) TUTase assay; read-out: Potency Lin28a-dep Z11 IC50.
Consider `CN(C)C1CN(c2ccc(-n3cc(C(=O)O)c(=O)c4cc(Cl)c(N5CCC[C@H]5COc5ncccc5Cl)cc43)cn2)C1` [Example 666, (S)-6-chloro-7-(2-(((3-chloropyridin-2-yl)oxy)methyl)pyrrolidin-1-yl)-1-(6-(3-(dimethylamino)azetidin-1-yl)pyridin-3-yl)-4-oxo-1,4-dihydroquinoline-3-carboxylic acid], for which the IC50 is ≤ 1000 nM.

For `COc1ccc(C)c(OC[C@H]2C[C@H]3C[C@H]3N2c2cc3c(cc2Cl)c(=O)c(C(=O)O)cn3-c2ccc(N3CC(N(C)C)C3)nc2)n1` [Example 676, 6-chloro-1-(6-(3-(dimethylamino)azetidin-1-yl)pyridin-3-yl)-7-((1R,3R,5R)-3-(((6-methoxy-3-methylpyridin-2-yl)oxy)methyl)-2-azabicyclo[3.1.0]hexan-2-yl)-4-oxo-1,4-dihydroquinoline-3-carboxylic acid], the IC50 was ≤ 1000 nM. As for `CC(=O)Nc1ccc(-n2cc(C(=O)O)c(=O)c3cc(Cl)c(N4CCC[C@@H]4COc4ncccc4Cl)cc32)cn1` [Example 426, (R)-1-(6-acetamidopyridin-3-yl)-6-chloro-7-(2-(((3-chloro-pyridin-2-yl)oxy)methyl)pyrrolidin-1-yl)-4-oxo-1,4-dihydroquinoline-3-carboxylic acid], the IC50 is ≤ 1000 nM. Take `CN(C)C1CN(c2ccc(-n3cc(C(=O)O)c(=O)c4cc(Cl)c(N5CC[C@@H](F)[C@@H]5COc5ncccc5Cl)cc43)cn2)C1` [Example 664, 6-chloro-7-((2S,3R)-2-(((3-chloropyridin-2-yl)oxy)methyl)-3-fluoropyrrolidin-1-yl)-1-(6-(3-(dimethylamino)azetidin-1-yl)pyridin-3-yl)-4-oxo-1,4-dihydroquinoline-3-carboxylic acid]: the IC50 is ≤ 1000 nM. With `O=C(O)c1cn(C2CCc3nccn3C2)c2cc(N3CCC[C@@H]3COc3ncccc3Cl)c(Cl)cc2c1=O` (stereo partly drawn) [Example 469, 6-chloro-7-((R)-2-(((3-chloropyridin-2-yl)oxy)methyl)pyrrolidin-1-yl)-4-oxo-1-(5,6,7,8-tetrahydroimidazo [1,2-a]pyridin-6-yl)-1,4-dihydroquinoline-3-carboxylic acid], the IC50 is ≤ 1000 nM.

Take `CN(C)C1CN(c2ccc(-n3cc(C(=O)O)c(=O)c4cc(F)c(N5CCC[C@H]5COc5ncccc5Cl)cc43)cn2)C1` [Example 670, (S)-7-(2-(((3-chloropyridin-2-yl)oxy)methyl)pyrrolidin-1-yl)-1-(6-(3-(dimethylamino)azetidin-1-yl)pyridin-3-yl)-6-fluoro-4-oxo-1,4-dihydroquinoline-3-carboxylic acid]: the IC50 was in the range of 1000 to 10000 nM. With `COCCNC1CN(c2ccc(-n3cc(C(=O)O)c(=O)c4cc(Cl)c(N5CCC[C@@H]5COc5ncccc5Cl)cc43)cn2)C1` [Example 494, (R)-6-chloro-7-(2-(((3-chloropyridin-2-yl)oxy)methyl)pyrrolidin-1-yl)-1-(6-(3-((2-methoxyethyl)amino)azetidin-1-yl)pyridin-3-yl)-4-oxo-1,4-dihydroquinoline-3-carboxylic acid], the IC50 was ≤ 1000 nM.

These data come from patent publication US12662491B2 (Redona Therapeutics, Inc., priority 2020, dated 2026).
